Data from patent US20180051017A1, “AGENT FOR TREATMENT OF SCHIZOPHRENIA” (Sumitomo Dainippon Pharma Co., Ltd., priority 2002, published 2018).
Counter-ions that a name gives are not always drawn.

System: patients with schizophrenia in the acute exacerbation phase
Test: First stage phase II clinical trial: safety (adverse events, serious adverse events, side effects, ECG, laboratory tests)
Type: in vivo, human
Description: According to the procedures as shown in Table 1 as described below, the placebo-controlled double blind experiment was done on 149 patients with schizophrenia in the acute exacerbation phase at 15 facilities in USA. The efficacy and safeness were studied when SM-13496 at a dose of 40 mg or 120 mg, or a placebo was orally administered once a day for 6 weeks after placebo washout.

[1] = 120 mg orally once a day for 6 weeks, 49 subjects

Structure (SMILES): O=C1[C@@H]2[C@@H]3CC[C@@H](C3)[C@@H]2C(=O)N1C[C@@H]1CCCC[C@H]1CN1CCN(c2nsc3ccccc23)CC1 [SM-13496, (1R,2S,3R,4S)-N-[(1R,2R)-2-[4-(1,2-benzoisothiazol-3-yl)-1-piperazinyl-methyl]-1-cyclohexylmethyl]-2,3-bicyclo[2.2.1]heptanedicarboximide hydrochloride]
- Number of subjects showing serious adverse events (%) [1]: 3 (6) number of subjects (%)
- Number of subjects who drop out from the trial due to adverse events (%) [1]: 6 (12) number of subjects (%)
- Occurrence of adverse event: Akathisia (120 mg, 6 weeks, 49 subjects): 7 (14) number of subjects (%)
- Occurrence of adverse event: Digestive disturbance (120 mg, 6 weeks, 49 subjects): 2 (4) number of subjects (%)
- Occurrence of adverse event: Drowsiness (120 mg, 6 weeks, 49 subjects): 5 (10) number of subjects (%)
- Occurrence of adverse event: Exacerbation of schizophrenia (120 mg, 6 weeks, 49 subjects): 1 (2) number of subjects (%)
- Occurrence of adverse event: Free-floating vertigo (excluding rotatory vertigo) (120 mg, 6 weeks, 49 subjects): 5 (10) number of subjects (%)
- Occurrence of adverse event: Headache (120 mg, 6 weeks, 49 subjects): 3 (6) number of subjects (%)
- Occurrence of adverse event: Nausea (120 mg, 6 weeks, 49 subjects): 11 (22) number of subjects (%)
- Occurrence of adverse event: Suppression (120 mg, 6 weeks, 49 subjects): 7 (14) number of subjects (%)
- Occurrence of serious adverse event: Exacerbation of paranoia (120 mg, 6 weeks, 49 subjects): 0 (0) number of subjects (%)
- Occurrence of serious adverse event: Exacerbation of schizophrenia (120 mg, 6 weeks, 49 subjects): 1 (2) number of subjects (%)
- Occurrence of serious adverse event: Paranoid schizophrenia (120 mg, 6 weeks, 49 subjects): 1 (2) number of subjects (%)
- Occurrence of serious adverse event: Psychosis aggravated (120 mg, 6 weeks, 49 subjects): 0 (0) number of subjects (%)
- Occurrence of side effects (%) (120 mg, 6 weeks, 49 subjects): 35 (71) number of subjects (%)
- Serious adverse events: Total (%) (120 mg, 6 weeks, 49 subjects): 2 (4) number of subjects (%)
- Side effect: Abdominal pain (Gastroenteric disturbance) (120 mg, 6 weeks, 49 subjects): 0 (0) number of subjects (%)
- Side effect: Abnormal electrocardiogram (Laboratory assay) (120 mg, 6 weeks, 49 subjects): 0 (0) number of subjects (%)
- Side effect: Abnormal liver function tests (Laboratory assay) (120 mg, 6 weeks, 49 subjects): 1 (2) number of subjects (%)
- Side effect: Agitation (Mental disturbance) (120 mg, 6 weeks, 49 subjects): 1 (2) number of subjects (%)
- Side effect: Agitation aggravated (Mental disturbance) (120 mg, 6 weeks, 49 subjects): 2 (4) number of subjects (%)
- Side effect: Akathisia (Nervous system disorder) (120 mg, 6 weeks, 49 subjects): 7 (14) number of subjects (%)
- Side effect: Akathisia aggravated (Nervous system disorder) (120 mg, 6 weeks, 49 subjects): 0 (0) number of subjects (%)
- Side effect: Anarthria (Nervous system disorder) (120 mg, 6 weeks, 49 subjects): 1 (2) number of subjects (%)
- Side effect: Anorexia (Metabolic disturbances and nutritional disturbance) (120 mg, 6 weeks, 49 subjects): 0 (0) number of subjects (%)
- Side effect: Anxiety aggravated (Mental disturbance) (120 mg, 6 weeks, 49 subjects): 0 (0) number of subjects (%)
- Side effect: Articular rigidity (Musculoskeletal system and connective tissue disorder) (120 mg, 6 weeks, 49 subjects): 0 (0) number of subjects (%)
- Side effect: Blurred vision (Ocular disturbance) (120 mg, 6 weeks, 49 subjects): 1 (2) number of subjects (%)
- Side effect: Breathing difficulty (Disturbance in respiratory organ, chest and mediastinum) (120 mg, 6 weeks, 49 subjects): 1 (2) number of subjects (%)
- Side effect: Cervical rigidity (Musculoskeletal system and connective tissue disorder) (120 mg, 6 weeks, 49 subjects): 0 (0) number of subjects (%)
- Side effect: Cogwheel rigidity (Nervous system disorder) (120 mg, 6 weeks, 49 subjects): 1 (2) number of subjects (%)
- Side effect: Constipation (Gastroenteric disturbance) (120 mg, 6 weeks, 49 subjects): 0 (0) number of subjects (%)
- Side effect: Decrease in appetite (Metabolic disturbances and nutritional disturbance) (120 mg, 6 weeks, 49 subjects): 1 (2) number of subjects (%)
- Side effect: Diarrhea (Gastroenteric disturbance) (120 mg, 6 weeks, 49 subjects): 0 (0) number of subjects (%)
- Side effect: Drowsiness (Nervous system disorder) (120 mg, 6 weeks, 49 subjects): 5 (10) number of subjects (%)
- Side effect: Dry eye (Ocular disturbance) (120 mg, 6 weeks, 49 subjects): 0 (0) number of subjects (%)
- Side effect: Dry mouth (Gastroenteric disturbance) (120 mg, 6 weeks, 49 subjects): 0 (0) number of subjects (%)
- Side effect: Dyspepsia (Gastroenteric disturbance) (120 mg, 6 weeks, 49 subjects): 2 (4) number of subjects (%)
- Side effect: Dystonic reaction (Nervous system disorder) (120 mg, 6 weeks, 49 subjects): 0 (0) number of subjects (%)
- Side effect: Exacerbation of insomnia (Mental disturbance) (120 mg, 6 weeks, 49 subjects): 1 (2) number of subjects (%)
- Side effect: External otitis (Infection and parasitosis) (120 mg, 6 weeks, 49 subjects): 0 (0) number of subjects (%)
- Side effect: Extrapyramidal disease (Nervous system disorder) (120 mg, 6 weeks, 49 subjects): 3 (6) number of subjects (%)
- Side effect: Fatigue (Total disability and local condition) (120 mg, 6 weeks, 49 subjects): 1 (2) number of subjects (%)
- Side effect: Fatigue aggravated (Total disability and local condition) (120 mg, 6 weeks, 49 subjects): 0 (0) number of subjects (%)
- Side effect: Flatulence (Gastroenteric disturbance) (120 mg, 6 weeks, 49 subjects): 0 (0) number of subjects (%)
- Side effect: Flushing (Vascular diseases) (120 mg, 6 weeks, 49 subjects): 0 (0) number of subjects (%)
- Side effect: Free-floating vertigo (excluding rotatory vertigo) (Nervous system disorder) (120 mg, 6 weeks, 49 subjects): 5 (10) number of subjects (%)
- Side effect: Frequent urination (Renal Injury and urinary disorder) (120 mg, 6 weeks, 49 subjects): 0 (0) number of subjects (%)
- Side effect: Glossoplegia (Nervous system disorder) (120 mg, 6 weeks, 49 subjects): 0 (0) number of subjects (%)
- Side effect: Headache (Nervous system disorder) (120 mg, 6 weeks, 49 subjects): 1 (2) number of subjects (%)
- Side effect: Heavy feeling (Musculoskeletal system and connective tissue disorder) (120 mg, 6 weeks, 49 subjects): 0 (0) number of subjects (%)
- Side effect: Hot flashes (Vascular diseases) (120 mg, 6 weeks, 49 subjects): 1 (2) number of subjects (%)
- Side effect: Hot sensation (Total disability and local condition) (120 mg, 6 weeks, 49 subjects): 0 (0) number of subjects (%)
- Side effect: Increase in creatine phosphokinase level in the blood (Laboratory assay) (120 mg, 6 weeks, 49 subjects): 0 (0) number of subjects (%)
- Side effect: Increase in prolactin level in the blood (Laboratory assay) (120 mg, 6 weeks, 49 subjects): 1(2) number of subjects (%)
- Side effect: Increase in total protein (Laboratory assay) (120 mg, 6 weeks, 49 subjects): 0 (0) number of subjects (%)
- Side effect: Insomnia (Mental disturbance) (120 mg, 6 weeks, 49 subjects): 1 (2) number of subjects (%)
- Side effect: Laryngopharynx pain (Disturbance in respiratory organ, chest and mediastinum) (120 mg, 6 weeks, 49 subjects): 0 (0) number of subjects (%)
- Side effect: Loose stools (Gastroenteric disturbance) (120 mg, 6 weeks, 49 subjects): 1 (2) number of subjects (%)
- Side effect: Melalgia (Musculoskeletal system and connective tissue disorder) (120 mg, 6 weeks, 49 subjects): 1 (2) number of subjects (%)
- Side effect: Muscle stiffness (Musculoskeletal system and connective tissue disorder) (120 mg, 6 weeks, 49 subjects): 1 (2) number of subjects (%)
- Side effect: Myalgic pain (Musculoskeletal system and connective tissue disorder) (120 mg, 6 weeks, 49 subjects): 1 (2) number of subjects (%)
- Side effect: Nausea (Gastroenteric disturbance) (120 mg, 6 weeks, 49 subjects): 9 (18) number of subjects (%)
- Side effect: Nightmare (Mental disturbance) (120 mg, 6 weeks, 49 subjects): 1 (2) number of subjects (%)
- Side effect: Palpitation (Heart problems) (120 mg, 6 weeks, 49 subjects): 1 (2) number of subjects (%)
- Side effect: Parotiditis (Infection and parasitosis) (120 mg, 6 weeks, 49 subjects): 0 (0) number of subjects (%)
- Side effect: Polyuria (Renal Injury and urinary disorder) (120 mg, 6 weeks, 49 subjects): 0 (0) number of subjects (%)
- Side effect: Pruritus (Disturbance in Skin and Hypodermis) (120 mg, 6 weeks, 49 subjects): 0 (0) number of subjects (%)
- Side effect: Psychosis aggravated (Mental disturbance) (120 mg, 6 weeks, 49 subjects): 2 (4) number of subjects (%)
- Side effect: Restlessness (Mental disturbance) (120 mg, 6 weeks, 49 subjects): 1 (2) number of subjects (%)
- Side effect: Salivary hypersecretion (Gastroenteric disturbance) (120 mg, 6 weeks, 49 subjects): 0 (0) number of subjects (%)
- Side effect: Sinus tachycardia (Heart problems) (120 mg, 6 weeks, 49 subjects): 1 (2) number of subjects (%)
- Side effect: Sleepiness (Total disability and local condition) (120 mg, 6 weeks, 49 subjects): 2 (4) number of subjects (%)
- Side effect: Suppression (Nervous system disorder) (120 mg, 6 weeks, 49 subjects): 7 (14) number of subjects (%)
- Side effect: Tinea pedis (Infection and parasitosis) (120 mg, 6 weeks, 49 subjects): 1 (2) number of subjects (%)
- Side effect: Tongue disturbance (Gastroenteric disturbance) (120 mg, 6 weeks, 49 subjects): 0 (0) number of subjects (%)
- Side effect: Tremor (Nervous system disorder) (120 mg, 6 weeks, 49 subjects): 3 (6) number of subjects (%)
- Side effect: Trismus (Nervous system disorder) (120 mg, 6 weeks, 49 subjects): 1 (2) number of subjects (%)
- Side effect: Urinary tract infection (Infection and parasitosis) (120 mg, 6 weeks, 49 subjects): 0 (0) number of subjects (%)
- Side effect: Vomiting (Gastroenteric disturbance) (120 mg, 6 weeks, 49 subjects): 3 (6) number of subjects (%)
- Side effect: Weight loss (Laboratory assay) (120 mg, 6 weeks, 49 subjects): 2 (4) number of subjects (%)
- Akathisia (adverse event) (120 mg-treated group): 14%
- Digestive disturbance compared to the placebo-treated group (120 mg-treated group): less observed
- Exacerbation of schizophrenia (adverse event) (120 mg-treated group): 2%
- Nausea compared to the other groups (120 mg-treated group): more observed
- Ratio of the subjects showing suppression (120 mg-treated group): 14%
- Serious adverse events (120 mg-treated group): 2 cases
- Change in body temperature, respiration rate, funduscopic examination and slit-lamp microscopy (SM-13496-treated groups): no clinically significant change
- Occurrence of dystonic reaction (SM-13496-treated groups): less than 4%
- Prolactin level in the blood (SM-13496-treated groups): moderate increase
- Number of subjects who dropped out from the trial due to the adverse events compared to placebo (both groups treated by two doses): higher
- Occurrence of the adverse events compared to placebo (groups treated by SM-13496): the same as that in the placebo-treated group
